The record followed here is patent US12454704B2, “Efficient gene delivery tool with a wide therapeutic margin” (priority 2019, dated 2025).

In data set [1] the test system is Neuro2a cells. Put plainly: Cell viability test via impedance measurement (iCELLigence). The class given is cell-based, murine. The procedure: The impedance (alternating current resistance) at the well bottom as real-time cell viability measure of adherent cells was determined by the iCELLigence® device. 8000 Neuro2a cells per well were seeded into two 8-well E-plates L8 and incubated for 24 h in a volume of 800 μL. For transfection toxicity studies 50 μL of reagent was added after the respective volume of culture medium was removed. Each 10 minutes the impedance/viability was measured.
The curves indicated in FIG. 2 represent the results of the following measurements: […]

In data set [2] the test system is Neuro2a cells. The class given is cell-based, murine. The note with it: 5 μg/mL. The source says:
To evaluate an enhancement of the transfection efficiency through AG1856 an optical based cytotoxicity assay after transfection with ribosome inactivating proteins (RIPs) was chosen.
As transgenes, 6-His-Agrostin RNA3 (Weise et al. 2020) and 6-His-Saporin 3 (Fabbrini et al. 1997) were cloned via BamHI and XbaI (Agrostin) and via SalI and NheI cleavage into pMC.CMV-MCS-SV40polyA (BioCat GmbH, Heidelberg, Germany) to produce minicircle with ZYCY10P3S2T (Kay et al. 2010). In addition to this, Saporin 3 and Gypsophillin S (Kokorin et al. 2019) were cloned into NTC9385R-BGHpA-Nanoplasmids and synthesized by Nature Technology Corporation (Lincoln, NB, USA) as previously described (Luke et al. 2011).
For 3 wells (96-Well-Plate), 300 ng plasmid DNA were diluted in 25 μL water and mixed with 25 μL of a solution with 2,100 ng Peptide Y (K16GACYGLPHKFCG) (GeneCust, Dudelage, Luxembourg). After an incubation period of 30 min, the nanoplexes were formed automatically. […]
The cytotoxic effect of the different constructs on the cells was measured by a CytoSMART® Omni, a camera-based system which took a photo of the bottom of each well every hour. The CytoSMART® Omni software calculated the confluence which is formed by living cells which are attached to the bottom. So, the cell growth could be monitored for 72 h. […]

The test system of data set [3] is female NMRI nu/nu mice. Put plainly: Chronic toxicity (tolerability) study of nanoplasmids (NP) plus AG1856 in vivo. The note with it: 90 μg per mouse. On the procedure: This study was performed to evaluate the tolerability of combined treatment of nanoplasmids (NP) and AG1856 in Naval Medical Research Institute (NMRI) nu/nu mice.
For the study, female NMRI nu/nu mice were used. Animals were treated with NP+AG1856 at doses of 50 and 90 μg/mouse respectively and after animal recovery in a second round at same doses.

Data set [4] deals with Neuro2a cells. The experiment in a line: Sapofection: transfection efficiency of GFP-encoding PD nanoplexes by flow cytometry. The class given is cell-based, murine. On the procedure: The PD nanoplexes comprised DNA encoding for the green fluorescent protein (GFP). Therewith, the transfection efficiency could very easily be monitored by detecting the fluorescence of the cells that have been incubated with the corresponding DNA nanoparticles. The corresponding incubation period was chosen to be 48 hours in the present case.
20 mg of positively charged poly-lysine peptides without an integrin-receptor-targeting amino sequence were purchased from Genecust. The vector of p-EGFP-N3, coding for the green fluorescing protein (GFP), was obtained and propagated with DH5α— E. coli cells (1.645 mg/mL). StemMACS™ eGFP mRNA (20 μg) and GFP encoding minicircle DNA (Gene Bank Accession: U55761) were used as further nucleic acids. In order to conduct the transfection, nanoplexes were formulated as follows: The poly-lysine peptides (P) and the p-EGFP-N3 vector (D), were diluted in water (each 50 μL) and mixed thoroughly by fast pipetting in a ratio of 4:1. The nanoplexes were allowed to form in a 30-minute incubation step. Thereafter, the nanoplex suspension was diluted with OptiMEM to a total volume of 1 mL. The commercial transfection reagent Lipofectamin®3000 was formulated as described by the manufacturer.
Neuro2a cells (15,000 cells/well) were seeded in a 24-well-plate with a well volume of 400 μL culture medium and incubated for 24 h. The transfection reagents were formulated as described above and admixed with saponin solution, if required. The culture medium was replaced with the transfection medium with a final amount of 500 ng DNA/RNA. After a 48 h incubation period, the transfection medium was removed, the cells were trypsinized and transferred in a polystyrene tube for flow cytometry (Cytoflex). For each measurement 10,000 cells were acquired. The transfection efficiency was determined by the analysis software Cyflogic (by comparison of the sample plots with the negative control in terms of fluorescence).
On the technique in general: In flow cytometry, cells or beads pass a laser one at a time.

Data set [5] concerns Neuro2a cells. The class given is cell-based, murine. The following applies: saponin alone, 4 μg/mL. From the text:
FIGS. 6A and 6B show cell viability tests upon AG1856-mediated delivery of GFP-minicircle-DNA- or RIP-minicircle-DNA-bearing nanoplexes.
Saporin and dianthin are cytotoxic proteins. If the transfection is successful, the transfected cells will die.
The curves depicted in FIG. 6A represent the results of the following measurements: […]

The subject of data set [6] is Neuro2a cells. The experiment in a line: Cell confluency as a measure of cell viability, determined optically (Cytosmart). The class given is cell-based, murine. The note with it: saponin 24 μg/mL applied 24 h after seeding. The procedure:
Murine neuroblastoma cells (Neuro2a cells, ATTC CCL-131™) were cultured in Dulbecco's Modified Eagle's Medium (DMEM), containing 1 g/L D-Glucose, 10% FBS and stable glutamine, at 37° C. and 5% CO2. These cells were then incubated with different saponins to test the cytotoxic effect of the saponins.
The cell confluency as a measure of cell viability was determined optically via cell number calculating algorithms (Cytosmart). The results are depicted in FIGS. 1A to 1D.
Buffer was used in each case as negative control.

Data set [7] relates to Neuro2a cells. The experiment in a line: Cell viability test by MTT assay. The class given is cell-based, murine. The following applies: same concentration for all saponins (FIG. 3). From the text: The determination of mitochondrial activity due to the formation of formazan out of MTT served as biochemical method to measure cell viability.
(In general: Tetrazolium dyes change colour on reduction, which living cells bring about.)

Turning to `COc1ccc(C[C@H](N)C(=O)N[C@H]2[C@@H](O)[C@H](n3cnc4c(N(C)C)ncnc43)O[C@@H]2CO)cc1` [puromycin, reference compound], the “toxicity (impedance, real-time cell viability)” value in data set [1] (positive control, 4 μg/mL) is “toxic”. Further, the “growth of the cells (normalized confluence)” value in data set [2] (positive control) is listed as “inhibit the growth of the cells instantly”.
Turning to `CC(=O)OCC1OC(OC2C(O)C(OC3C(OC(=O)C45CCC(C)(C)CC4C4=CCC6C7(C)CCC(OC8OC(C(=O)O)C(O)C(OC9OCC(O)C(O)C9O)C8OC8OC(CO)C(O)C(O)C8O)C(C)(C=O)C7CCC6(C)C4(C)CC5O)OC(C)C(OC4OC(C)C(OC(C)=O)C(OC(C)=O)C4O)C3O)OC(C)C2OC2OCC(O)C(O)C2O)C(O)C(O)C1OC(C)=O` (stereo not drawn) [AG1856], the “tolerance compared to other saponins” value in data set [3] was “superior tolerance”. Also, the “toxicity (impedance, real-time cell viability)” value in data set [1] (stepwise increase of AG1856 concentration, 2 to 24 μg/mL) was “no significant toxicity increase”. In addition, the transfection efficiency result in data set [4] (GFP-plasmid nanoplexes, saponin increased from working concentration to 24 μg/mL (FIG. 5)) was “even increased efficiency”; in data set [4] (PD nanoplexes (GFP DNA), saponin 2 μg/mL, 48 h incubation, versus Lipofectamin3000) it was “comparable to that of the gold standard Lipofectamin”; in data set [4] (PD nanoplexes (GFP DNA), saponin 4 μg/mL or higher, 48 h incubation, versus Lipofectamin3000), “even higher than that of Lipofectamin”. In data set [4] (transfection with GFP minicircle DNA performed with AG1856, n>3 (FIG. 6B)), the “fluorescing cells (flow cytometric analysis)” value is recorded as “Four cells out of five”. For the same compound, in data set [5], the “toxicity (cell viability)” value was “no toxicity”. Further, the “proliferation worse than the negative group (normalized confluence)” value in data set [2] (AG1856 only) stood at 12%. For the same compound, the “toxic effect (cell confluency as a measure of cell viability)” value in data set [6] is given as “No distinct toxic effect”. In data set [7], the “toxicity-mediated drop of viability (MTT)” value was “could not be observed”.
